{
  "source": "patent US20090286718A1",
  "about": "“Stable Aqueous Cyclosporin Compositions” (SIRION THERAPEUTICS, INC., priority 2008, published 2009)",
  "conditions": "initial 0.220 %",
  "protocol": "The samples were tested for stability after having been stored at 25° C. for three months.",
  "note": "Where two headings read alike, the source gives them in different places.",
  "data": [
    {"compound": "C/C=C/C=C/C(=O)O", "note": "[Sorbic Acid, sorbic acid]", "values": [
      {"measurement": "Sorbic Acid Concentration (%) After 3 months storage at 25 C.", "setting": "pH = 5.5", "value": 0.13, "unit": "%"},
      {"measurement": "Sorbic Acid Concentration (%) After 3 months storage at 25 C.", "setting": "pH = 6.0", "value": 0.21, "unit": "%"},
      {"measurement": "Sorbic Acid Concentration (%) After 3 months storage at 25 C.", "setting": "pH = 6.5", "value": 0.21, "unit": "%"}
    ]}
  ]
}
